The values that follow come from article PMC5439695 (PLoS ONE, 2017).

In series [1] the test system is HEK293 and HepG2 cell lines.
The subject of series [2] is HepG2 cells. The settings on record: for IC50: HepG2, glo, n=136.
Series [3] deals with HepG2 cells. Description: CellTox Green Cytotoxicity Assay (flor) in HepG2, HepG2[flor]. It counts as cell-based, human. The note with it: HepG2, flor, n=136, read-out: EC50.
Series [4] concerns HEK293 cells. The note with it: HEK293, flor, mean and SD, n=136.
In series [5] the test system is HEK293 cells. The note with it: HEK293, glo, mean and SD, n=136.
The mark [6] stands for this setting: POD potency, max over real-time cytotoxicity assays.
[7] abbreviates: POD potency, median over real-time cytotoxicity assays.
Setting [8] is: HEK293[glo], HEK293[flor], HepG2[glo], HepG2[flor].

Values joined by “and” are separate entries in the source; they are usually repeats but may differ in a detail not shown here. Equal values may be shown once. Read-outs that look alike come from different tables or passages of the source.

For the molecule `CCCCCCCCCCCCn1cc[n+](C)c1.F[B-](F)(F)F`, the “Cyto(realtime)_max” value in series [1] (setting [6]) is 6.57 log10(M)*-1. For the same molecule, in series [1] (setting [7]), the “Cyto(realtime)_median” value is 4.55 log10(M)*-1.
For `CCCCCCCCCCCCn1cc[n+](C)c1.O=S(=O)([O-])C(F)(F)F`, in series [1] (setting [6]), the “Cyto(realtime)_max” value is 6.68 log10(M)*-1. Further, the “Cyto(realtime)_median” value in series [1] (setting [7]) was 4.57 log10(M)*-1.
As for `CCCCCCCCCCCCCCCC[N+](C)(C)C.[Cl-]`, in series [1] (setting [6]), the “Cyto(realtime)_max” value was 5.58 log10(M)*-1. The “Cyto(realtime)_median” value in series [1] (setting [7]) is 4.79 log10(M)*-1.
Take `CCCCCCCCCCCCCCCCn1cc[n+](C)c1.F[B-](F)(F)F`: in series [1] (setting [6]), the “Cyto(realtime)_max” value is listed as 6.28 log10(M)*-1. Also, the “Cyto(realtime)_median” value in series [1] (setting [7]) was 4.62 log10(M)*-1.
The like results for `CCCCCCCCCCCCCC[n+]1ccn(C)c1.[Cl-]` were, in that order, 6.67 log10(M)*-1 and 4.69 log10(M)*-1.
For `CCCCCCCCCCCCCC[N+](C)(C)C.[Cl-]`, the “Cyto(realtime)_max” value in series [1] (setting [6]) was 5.94 log10(M)*-1. Besides, the “Cyto(realtime)_median” value in series [1] (setting [7]) is 4.88 log10(M)*-1.
On the same counts, the results for `CCCCCCCCCCCCCC[P+](CCCC)(CCCC)CCCC.CCCCCCCCCCCCc1ccc(S(=O)(=O)[O-])cc1` are 6.97 log10(M)*-1 and 5.03 log10(M)*-1.
The like results for `CCCCCCCCCCCCCC[P+](CCCCCC)(CCCCCC)CCCCCC.N#C[N-]C#N` were, in that order, 5.83 log10(M)*-1 and 4.81 log10(M)*-1.
With “1-Ethyl-3-methylimidazolium diethylphosphate”, in series [1], the “Cyto(realtime)_max” value is given as 6.32 log10(M)*-1 and the “Cyto(realtime)_median” value is 4.65 log10(M)*-1.
As to `N=C1NC(=N)c2cc3ccccc3cc21` [1,3-Diiminobenz(f)isoindoline], the “Cyto(realtime)_max” value in series [1] (setting [6]) is given as 4.75 log10(M)*-1. Also, in series [1] (setting [7]), the “Cyto(realtime)_median” value is 4.40 log10(M)*-1.
Take `CCCC[n+]1ccc(C)cc1.[Cl-]` [1-Butyl-4-methylpyridinium chloride]: the “Cyto(realtime)_max” value in series [1] (setting [6]) is 5.01 log10(M)*-1. Moreover, the “Cyto(realtime)_median” value in series [1] (setting [7]) is 4.39 log10(M)*-1.
The like results for `CCCCCCCCCCCCn1cc[n+](C)c1.[Cl-]` [1-Dodecyl-3-methylimidazolium chloride] were, in that order, 7.06 log10(M)*-1 and 4.44 log10(M)*-1.
On the same counts, the results for `OCC(c1ccc(Cl)cc1)c1ccc(Cl)cc1` [2,2-Bis(4-chlorophenyl)ethanol] are 4.70 log10(M)*-1 and 4.57 log10(M)*-1.
As for `CCCCC(CC)COC(=O)c1ccc(O)cc1` (stereo not drawn) [2-Ethylhexylparaben], in series [1] (setting [6]), the “Cyto(realtime)_max” value is recorded as 4.68 log10(M)*-1. In addition, the “Cyto(realtime)_median” value in series [1] (setting [7]) is 4.25 log10(M)*-1.
The like results for `Cl.Cl.Nc1ccc(-c2ccc(N)c(Cl)c2)cc1Cl` [3,3'-Dichlorobenzidine dihydrochloride] were, in that order, 5.37 log10(M)*-1 and 4.59 log10(M)*-1.
Regarding `CC(C)(C)CC(C)(C)c1ccc(O)cc1` [4-(1,1,3,3-tetramethylbutyl)phenol, reference compound], the “cytotoxicity kinetics activity profile in the four real-time cytotoxicity assays” value (“cytotoxicity kinetics activity profile” for short) in series [1] (setting [8]) is “quickly reach the maximum cytotoxic effect in at least three assays”.
In the case of `O=[N+]([O-])C1(Br)COCOC1` [5-Bromo-5-nitro-1,3-dioxane], the “Cyto(realtime)_max” value in series [1] (setting [6]) is 4.72 log10(M)*-1. In addition, the “Cyto(realtime)_median” value in series [1] (setting [7]) is on record as 4.41 log10(M)*-1.
In the case of `CC/C(=C(\c1ccc(O)cc1)c1ccc(OCCN(C)C)cc1)c1ccccc1` [(Z)-4-Hydroxytamoxifen], the “Cyto(realtime)_max” value in series [1] (setting [6]) is 4.89 log10(M)*-1. Further, the “Cyto(realtime)_median” value in series [1] (setting [7]) is listed as 4.45 log10(M)*-1.
The like results for `CC=O` [Acetaldehyde] were, in that order, 6.67 log10(M)*-1 and 4.54 log10(M)*-1.
With `C=C(c1ccc(C(=O)O)cc1)c1cc2c(cc1C)C(C)(C)CCC2(C)C` [Bexarotene], in series [1], the “Cyto(realtime)_max” value was 4.68 log10(M)*-1 and the “Cyto(realtime)_median” value is 4.23 log10(M)*-1.
Turning to `C[C@]12CC[C@@H]3c4ccc(O)cc4C[C@@H](CCCCCCCCC[S+]([O-])CCCC(F)(F)C(F)(F)F)[C@H]3[C@@H]1CC[C@@H]2O` (stereo partly drawn) [fulvestrant, reference compound], in series [1] (human), the “cytotoxicity kinetics activity profile” value is “solely active, HEK293[glo]”.
As to `CO[C@@]12[C@H](COC(N)=O)C3=C(C(=O)C(C)=C(N)C3=O)N1C[C@@H]1N[C@@H]12` [mitomycin C, reference compound], the “activity in the assay (cytotoxic effect)” value in series [2] is “active”.
On to `ClC(Cl)=C(c1ccc(Cl)cc1)c1ccc(Cl)cc1` [p,p'-DDE, reference compound], for which the “cytotoxicity kinetics activity profile” value in series [1] (setting [8]) is reported as “quickly reach the maximum cytotoxic effect in at least three assays”.
On to `CCCCCCCC[N+](CCCCCCCC)(CCCCCCCC)CCCCCCCC` [tetra-N-octylammonium bromide, reference compound], for which the EC50 (commonly the midpoint of the concentration-response curve) in series [3] (8 hrs) was 7.59 ± 1.48 µM; in series [3] (16 hrs), 6.18 ± 1.27 µM; in series [3] (24 hrs) it was 5.87 ± 1.1 µM; in series [3] (32 hrs), 6.43 ± 1 µM; in series [3] (40 hrs), 6.4 ± 0.96 µM; in series [4] (8 hrs), 9.88 ± 2.1 µM. Also, the EC50 in series [4] (16 hrs) was 8.01 ± 1.52 µM; in series [4] (24 hrs) it was 6.06 ± 1.11 µM; in series [4] (32 hrs), 6.8 µM and 6.73 µM; in series [4] (40 hrs), 7.69 ± 1.76 µM. The IC50 (in general, the midpoint of a concentration-inhibition curve) was 7.9 ± 1.62 µM in series [2] (8 hrs); 7.53 ± 1.44 µM in series [2] (16 hrs); 7.79 ± 1.54 µM in series [2] (24 hrs); 8.05 ± 1.68 µM in series [2] (32 hrs); 8.18 ± 1.91 µM in series [2] (40 hrs); 5.91 ± 1.26 µM in series [5] (8 hrs). Also, the IC50 in series [5] (16 hrs) came out at 2.53 ± 0.74 µM; in series [5] (24 hrs), 1.34 ± 0.52 µM; in series [5] (32 hrs), 0.87 ± 0.44 µM; in series [5] (40 hrs), 0.79 ± 0.32 µM.
`C=CC1(C)OC(=O)N(c2cc(Cl)cc(Cl)c2)C1=O` (stereo not drawn) [vinclozolin, reference compound]: the “cytotoxicity kinetics activity profile” value in series [1] is “no activity in all four real-time cytotoxicity assays”.
Take Bis(tributyltin)oxide: in series [1], the “Cyto(realtime)_max” value is on record as 7.21 log10(M)*-1 and the “Cyto(realtime)_median” value was 6.40 log10(M)*-1.
With C.I. Solvent Black 5, the “Cyto(realtime)_max” value in series [1] (setting [6]) was 5.68 log10(M)*-1. Further, the “Cyto(realtime)_median” value in series [1] (setting [7]) is given as 4.42 log10(M)*-1.
For the molecule Triethyltin bromide, in series [1], the “Cyto(realtime)_max” value was 6.72 log10(M)*-1 and the “Cyto(realtime)_median” value is 5.42 log10(M)*-1.
